The results in this text go back to patent publication US4759880A, “Alkanoarachidonic acids” (Research Corporation, priority 1984, dated 1988).

In experiment [1] the test system is human gel-filtered platelet suspension. In words: Inhibition of AA-induced platelet aggregation. The class given is cell-based. To be noted: human gel-filtered platelet suspension containing 0.2% albumin. The source says: (§1) Biological studies to define the profiles of these compounds reveal interesting and selective properties including, in vitro inhibition of SRS-A biosynthesis, 5-lipoxygenase inhibition, phospholiphase A2 inhibition and antithrombotic activity.

For the next experiment, the target named is T1, 5-lipoxygenase (Rattus norvegicus, UniProt P12527).
T1 construct: super natant from RBL-1 cells; endogenous in cells; host or cells: RBL-1 cells (supernatant)
T1 sequence (P12527 1-673): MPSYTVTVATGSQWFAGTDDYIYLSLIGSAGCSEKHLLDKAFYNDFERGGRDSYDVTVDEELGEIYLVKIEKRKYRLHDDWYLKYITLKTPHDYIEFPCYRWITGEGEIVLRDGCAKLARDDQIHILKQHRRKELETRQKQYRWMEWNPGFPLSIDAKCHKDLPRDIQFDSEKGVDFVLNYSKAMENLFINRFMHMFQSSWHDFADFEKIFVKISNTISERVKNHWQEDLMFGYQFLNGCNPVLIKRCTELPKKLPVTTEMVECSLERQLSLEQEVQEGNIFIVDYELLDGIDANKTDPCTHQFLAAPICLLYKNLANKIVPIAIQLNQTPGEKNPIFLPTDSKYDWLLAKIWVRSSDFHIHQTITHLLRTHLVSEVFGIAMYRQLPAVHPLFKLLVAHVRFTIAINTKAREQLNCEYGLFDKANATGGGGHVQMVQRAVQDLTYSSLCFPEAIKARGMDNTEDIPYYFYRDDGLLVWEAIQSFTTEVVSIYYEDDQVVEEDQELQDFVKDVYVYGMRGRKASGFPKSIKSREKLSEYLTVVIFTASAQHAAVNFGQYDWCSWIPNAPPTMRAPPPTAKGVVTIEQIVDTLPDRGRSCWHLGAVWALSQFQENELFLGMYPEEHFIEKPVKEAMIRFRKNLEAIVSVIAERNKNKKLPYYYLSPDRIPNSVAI
In words: Inhibition of conversion of 14C-AA to 14C-5-HETE in supernatant from RBL-1 cells. The class given is biochemical.
Description: as §1

As a reminder, the inhibition is the share of the control response that was lost under treatment. A high value points to a response far below the control. On to `CCCCC/C=C\C/C=C\C/C=C\C1(/C=C\CCCC(=O)O)CC1` [compound 1], for which, in experiment [1], at 80 µM the inhibition was 50%. This molecule returned an inhibition at 100 µM at 5-lipoxygenase of 86%.
